# Results: patent publication US20070213396A1, “Active Substance Combinations Having Insecticidal Properties” (BAYER CROPSCIENCE AG, priority 2004, published 2007)
# Where “and” joins values, the source holds several entries; their conditions need not be identical. Equal entries are not always repeated.
# Tests used:
# Type in all cases: in vivo
# Conditions in all cases: single active compound
# [1] = test system: caterpillars of the cotton bollworm (Heliothis armigera); test: Heliothis armigera test (cabbage leaf dip)
# Description: (§1) The expected action for a given combination of two active compounds can be calculated as follows, according to S. R. Colby, Weeds 15 (1967), 20-22: • If • X is the kill rate, expressed as a percentage of the untreated control, when employing active compound A at an application rate of m g/ha or in a concentration of m ppm, • Y is the kill rate, expressed as a percentage of the untreated control, when employing active compound B at an application rate of n g/ha or in a concentration of n ppm and • E is the kill rate, expressed as a percentage of the untreated control, when employing active compounds A and B at application rates of m and n g/ha or in a concentration of m and n ppm, • then [formula] If the actual insecticidal kill rate exceeds the calculated value, the kill of the combination is superadditive, i.e. a synergistic effect is present. In this case, the actually observed kill rate must exceed the value calculated using the above formula for the expected kill rate (E).
# (§2) To produce a suitable preparation of active compound, 1 part by weight of active compound is mixed with the stated amounts of solvent and emulsifier, and the concentrate is diluted with emulsifier-containing water to the desired concentration.
# Cabbage leaves (Brassica oleracea) are treated by being dipped into the preparation of active compound of the desired concentration and are populated with caterpillars of the cotton bollworm (Heliothis armigera) while the leaves are still moist.
# (§3) After the desired period of time, the kill in % is determined. 100% means that all caterpillars have been killed; 0% means that none of the caterpillars have been killed. The determined kill rates are entered into Colby's formula (see sheet 1).
# [2] = test system: Phaedon cochleariae larvae; test: Phaedon cochleariae larvae test (cabbage leaf dip)
# Description: as §1
# phaedon cochlearise Larvae Teast
# as §2
# Cabbage leaves (Brassica oleracea) are treated by being dipped into the preparation of active compound of the desired concentration and are populated with […] (Phaedon cochleariae) while the leaves are still moist.
# as §3
# [3] = test system: caterpillars of the beet armyworm (Spodoptera exigua); test: Spodoptera exigua test (cabbage leaf dip)
# Description: as §1
# The produce a suitable preparation of active compound, 1 part by weight of active compound is mixed with the stated amounds of solvent and emulsifier, and the concentrate is diluted with emulsifier-containing water to the desired concentration. […]
# After the desired period of time, the kill in % is determined. […] The determined kill rates are entered into Colby's formula (see sheet 1)
smiles,measurement,setting,value
CC1(C)[C@H](C(=O)O[C@H](C#N)c2cccc(Oc3ccccc3)c2)[C@@H]1C=C(Br)Br [deltamethrin],Kill in % after 3 d,[1]; 0.032 ppm,10%
same,Kill in % after 6 d,[2]; 0.16 ppm,50%
CC1(C)C(/C=C(\Cl)C(F)(F)F)C1C(=O)OC(C#N)c1cccc(Oc2ccccc2)c1 (stereo not drawn) [lambda-cyhalothrin],Kill in % after 3 d,[2]; 0.16 ppm,15%
CC1(C)C(C=C(Cl)Cl)C1C(=O)OCc1cccc(Oc2ccccc2)c1 (stereo not drawn) [permethrin],Kill in % after 6 d,[1]; 0.16 ppm,15%
same,Kill in % after 6 d,[3]; 0.16 ppm,0%
O=C(NC(=O)c1ccccc1Cl)Nc1ccc(OC(F)(F)F)cc1 [triflumuron],Kill in % after 3 d,[1]; 0.8 ppm,0%
same,Kill in % after 6 d,[1]; 4 ppm,0%
same,Kill in % after 6 d,[3]; 4 ppm,20%
same,Kill in % after 3 d,[2]; 4 ppm,25% and 35%
same,Kill in % after 6 d,[2]; 4 ppm,65%
CC1(C)C(C=C(Cl)Cl)C1C(=O)OC(C#N)c1ccc(F)c(Oc2ccccc2)c1 (stereo not drawn) [β-cyfluthrin],Kill in % after 6 d,[1]; 0.16 ppm,65%
same,Kill in % after 3 d,[2]; 0.16 ppm,15%
